US12655116B2, “Substituted isophthalic acid diamides” (Bayer Aktiengesellschaft, priority 2020, dated 2026)

Experiments:
ABUTH [1] = assay: Pre-emergence herbicidal action against ABUTH; assay type: in vivo, Abutilon theophrasti; conditions: Abutilon theophrasti, 504 h
How it was run: (§1)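 Herbicidal effect was assessed 3 weeks after treatment by visual comparison with untreated controls, 100% denoting dead plants. Aqueous WP or EC preparations had been applied at 600 to 800 l/ha with 0.2% wetting agent to the soil covering freshly sown seeds.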

ALOMY = assay: Pre-emergence herbicidal action against ALOMY; assay type: in vivo, Alopecurus myosuroides; conditions: Alopecurus myosuroides, 504 h; 80 g/ha, pre-emergence, scored visually after 3 weeks vs untreated controls (100% = plants have died, 0% = like control plants)
How it was run: as §1

AMARE [2] = assay: Pre-emergence herbicidal action against AMARE; assay type: in vivo, Amaranthus retroflexus; conditions: Amaranthus retroflexus, 504 h, scored visually after 3 weeks vs untreated controls, 100% = plants have died, 0% = like control plants
How it was run: as §1

AVEFA = assay: Pre-emergence herbicidal action against AVEFA; assay type: in vivo, Avena fatua; conditions: Avena fatua, 504 h; 80 g/ha, pre-emergence
How it was run: as §1

ECHCG [3] = assay: Pre-emergence herbicidal action against ECHCG; assay type: in vivo, Echinochloa crus-galli; conditions: Echinochloa crus-galli, 504 h, 80 g/ha
How it was run: as §1

LOLRI = assay: Pre-emergence herbicidal action against LOLRI; assay type: in vivo, Lolium rigidum; conditions: Lolium rigidum, 504 h, 80 g/ha
How it was run: as §1

MATIN [4] = assay: Pre-emergence herbicidal action against MATIN; assay type: in vivo, Matricaria inodora; conditions: Tripleurospermum inodorum, 504 h
How it was run: as §1

PHBPU [5] = assay: Pre-emergence herbicidal action against PHBPU; assay type: in vivo, Pharbitis purpurea; conditions: Ipomoea purpurea, 504 h, dosage 80 g/ha
How it was run: as §1

POLCO = assay: Pre-emergence herbicidal action against POLCO; assay type: in vivo, Polygonum convolvulus; conditions: Fallopia convolvulus, 504 h
How it was run: as §1

SETVI [6] = assay: Pre-emergence herbicidal action against SETVI; assay type: in vivo, Setaria viridis; conditions: Setaria viridis, 504 h, dosage 80 g/ha
How it was run: as §1

STEME [7] = assay: Pre-emergence herbicidal action against STEME; assay type: in vivo, Stellaria media; conditions: Stellaria media, 504 h
How it was run: as §1

VERPE [8] = assay: Pre-emergence herbicidal action against VERPE; assay type: in vivo, Veronica persica; conditions: Veronica persica, 504 h, dosage 80 g/ha
How it was run: as §1

VIOTR [9] = assay: Pre-emergence herbicidal action against VIOTR; assay type: in vivo, Viola tricolor; conditions: Viola tricolor, 504 h
How it was run: as §1

DIGSA [10] = assay: Pre-emergence herbicidal action against DIGSA; assay type: in vivo, Digitaria sanguinalis; conditions: Digitaria sanguinalis, 504 h
How it was run: as §1

ABUTH [11] = assay: Post-emergence herbicidal action against ABUTH; assay type: in vivo, Abutilon theophrasti; conditions: Abutilon theophrasti, 504 h, visual assessment about 3 weeks after treatment vs untreated controls
How it was run: (§2)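 Herbicidal effect was scored visually in percent after about 3 weeks in the greenhouse. Plants had been raised in sandy loam and treated post-emergence at the one-leaf stage with formulated compound at 600 to 800 l/ha water plus 0.2% wetting agent.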

AMARE [12] = assay: Post-emergence herbicidal action against AMARE; assay type: in vivo, Amaranthus retroflexus; conditions: Amaranthus retroflexus, 504 h, 20 g/ha, visual assessment about 3 weeks after treatment, 100% = plants have died, 0% = like control plants
How it was run: as §2

ECHCG [13] = assay: Post-emergence herbicidal action against ECHCG; assay type: in vivo, Echinochloa crus-galli; conditions: Echinochloa crus-galli, 504 h
How it was run: as §2

MATIN [14] = assay: Post-emergence herbicidal action against MATIN; assay type: in vivo, Matricaria inodora; conditions: Tripleurospermum inodorum, 504 h
How it was run: as §2

PHBPU [15] = assay: Post-emergence herbicidal action against PHBPU; assay type: in vivo, Pharbitis purpurea; conditions: Ipomoea purpurea, 504 h
How it was run: as §2

SETVI [16] = assay: Post-emergence herbicidal action against SETVI; assay type: in vivo, Setaria viridis; conditions: Setaria viridis, 504 h, dosage 20 g/ha
How it was run: as §2

STEME [17] = assay: Post-emergence herbicidal action against STEME; assay type: in vivo, Stellaria media; conditions: Stellaria media, 504 h, 20 g/ha
How it was run: as §2

VERPE [18] = assay: Post-emergence herbicidal action against VERPE; assay type: in vivo, Veronica persica; conditions: Veronica persica, 504 h, 20 g/ha
How it was run: as §2

VIOTR [19] = assay: Post-emergence herbicidal action against VIOTR; assay type: in vivo, Viola tricolor; conditions: Viola tricolor, 504 h
How it was run: as §2

DIGSA [20] = assay: Post-emergence herbicidal action against DIGSA; assay type: in vivo, Digitaria sanguinalis; conditions: Digitaria sanguinalis, 504 h
How it was run: as §2

Compound: CCNC(=O)c1c(C(F)F)ccc(C(=O)Nc2nnnn2C)c1C [Example 1-45]
- pest or weed control at 80 g/ha (ABUTH [1]; 80 g/ha, scored visually after 3 weeks vs untreated controls (100% = plants have died, 0% = like control plants)): 100%
- pest or weed control at 20 g/ha (ABUTH [1]; dosage 20 g/ha, scored visually after 3 weeks vs untreated controls, 100% = plants have died, 0% = like control plants, read-out: Pre-emergence action against ABUTH (herbicidal activity in percent)): 80%
- pest or weed control at 80 g/ha (ALOMY): 90%
- pest or weed control at 20 g/ha (AMARE [2]; 20 g/ha): 100%
- pest or weed control at 80 g/ha (AMARE [2]; 80 g/ha): 100%
- pest or weed control at 80 g/ha (AVEFA): 90%
- pest or weed control at 80 g/ha (ECHCG [3]): 90%
- pest or weed control at 80 g/ha (LOLRI): 80%
- pest or weed control at 20 g/ha (MATIN [4]; dosage 20 g/ha): 100%
- pest or weed control at 80 g/ha (MATIN [4]; dosage 80 g/ha): 100%
- pest or weed control at 80 g/ha (PHBPU [5]): 90%
- pest or weed control at 20 g/ha (POLCO; dosage 20 g/ha): 90%
- pest or weed control at 80 g/ha (POLCO; dosage 80 g/ha): 90%
- pest or weed control at 80 g/ha (SETVI [6]): 100%
- pest or weed control at 20 g/ha (STEME [7]; dosage 20 g/ha): 90%
- pest or weed control at 80 g/ha (STEME [7]; dosage 80 g/ha): 90%
- pest or weed control at 80 g/ha (VERPE [8]): 90%
- pest or weed control at 20 g/ha (VIOTR [9]; dosage 20 g/ha): 80%
- pest or weed control at 80 g/ha (VIOTR [9]; dosage 80 g/ha): 100%
- pest or weed control at 20 g/ha (DIGSA [10]; dosage 20 g/ha): 100%
- pest or weed control at 80 g/ha (DIGSA [10]; dosage 80 g/ha): 100%
- pest or weed control at 5 g/ha (ABUTH [11]; dosage 5 g/ha): 80%
- pest or weed control at 20 g/ha (ABUTH [11]; dosage 20 g/ha): 90%
- pest or weed control at 20 g/ha (AMARE [12]): 90%
- pest or weed control at 5 g/ha (ECHCG [13]; dosage 5 g/ha): 80%
- pest or weed control at 20 g/ha (ECHCG [13]; dosage 20 g/ha): 80%
- pest or weed control at 5 g/ha (MATIN [14]; dosage 5 g/ha): 80%
- pest or weed control at 20 g/ha (MATIN [14]; dosage 20 g/ha): 80%
- pest or weed control at 5 g/ha (PHBPU [15]; dosage 5 g/ha): 80%
- pest or weed control at 20 g/ha (PHBPU [15]; dosage 20 g/ha): 80%
- pest or weed control at 20 g/ha (SETVI [16]): 80%
- pest or weed control at 20 g/ha (STEME [17]): 80%
- pest or weed control at 20 g/ha (VERPE [18]): 80%
- pest or weed control at 5 g/ha (VIOTR [19]; 5 g/ha): 80%
- pest or weed control at 20 g/ha (VIOTR [19]; 20 g/ha): 90%
- pest or weed control at 5 g/ha (DIGSA [20]; 5 g/ha): 80%
- pest or weed control at 20 g/ha (DIGSA [20]; 20 g/ha): 80%
